Assay results: ChEMBL document CHEMBL4715697, “Synthesis and biological activity of benzamide DNA minor groove binders” (2016)

Legend:
Type in all cases: functional
Conditions in all cases: read-out: Activity
CCRF-CEM = test: Growth inhibition of human CCRF-CEM cells assessed as cell growth at 10 uM incubated for 48 hrs by sulforhodamine B assay relative to control
K562 = test: Growth inhibition of human K562 cells assessed as cell growth at 10 uM incubated for 48 hrs by sulforhodamine B assay relative to control
MOLT-4 = test: Growth inhibition of human MOLT-4 cells assessed as cell growth at 10 uM incubated for 48 hrs by sulforhodamine B assay relative to control
RPMI-8226 = test: Growth inhibition of human RPMI-8226 cells assessed as cell growth at 10 uM incubated for 48 hrs by sulforhodamine B assay relative to control
SR = test: Growth inhibition of human SR cells assessed as cell growth at 10 uM incubated for 48 hrs by sulforhodamine B assay relative to control
A549 = test: Growth inhibition of human A549/ATCC cells assessed as cell growth at 10 uM incubated for 48 hrs by sulforhodamine B assay relative to control
HOP-62 = test: Growth inhibition of human HOP-62 cells assessed as cell growth at 10 uM incubated for 48 hrs by sulforhodamine B assay relative to control
NCI-H23 = test: Growth inhibition of human NCI-H23 cells assessed as cell growth at 10 uM incubated for 48 hrs by sulforhodamine B assay relative to control
NCI-H460 = test: Growth inhibition of human NCI-H460 cells assessed as cell growth at 10 uM incubated for 48 hrs by sulforhodamine B assay relative to control
NCI-H522 = test: Growth inhibition of human NCI-H522 cells assessed as cell growth at 10 uM incubated for 48 hrs by sulforhodamine B assay relative to control
HCC 2998 = test: Growth inhibition of human HCC 2998 cells assessed as cell growth at 10 uM incubated for 48 hrs by sulforhodamine B assay relative to control
HCT-116 = test: Growth inhibition of human HCT-116 cells assessed as cell growth at 10 uM incubated for 48 hrs by sulforhodamine B assay relative to control
HCT-15 = test: Growth inhibition of human HCT-15 cells assessed as cell growth at 10 uM incubated for 48 hrs by sulforhodamine B assay relative to control
HT-29 = test: Growth inhibition of human HT-29 cells assessed as cell growth at 10 uM incubated for 48 hrs by sulforhodamine B assay relative to control
SW-620 = test: Growth inhibition of human SW-620 cells assessed as cell growth at 10 uM incubated for 48 hrs by sulforhodamine B assay relative to control
SF-268 = test: Growth inhibition of human SF-268 cells assessed as cell growth at 10 uM incubated for 48 hrs by sulforhodamine B assay relative to control
SNB-75 = test: Growth inhibition of human SNB-75 cells assessed as cell growth at 10 uM incubated for 48 hrs by sulforhodamine B assay relative to control
U-251 = test: Growth inhibition of human U-251 cells assessed as cell growth at 10 uM incubated for 48 hrs by sulforhodamine B assay relative to control
LOX IMVI = test: Growth inhibition of human LOX IMVI cells assessed as cell growth at 10 uM incubated for 48 hrs by sulforhodamine B assay relative to control
M14 = test: Growth inhibition of human M14 cells assessed as cell growth at 10 uM incubated for 48 hrs by sulforhodamine B assay relative to control
MDA-MB-435 = test: Growth inhibition of human MDA-MB-435 cells assessed as cell growth at 10 uM incubated for 48 hrs by sulforhodamine B assay relative to control
SK-MEL-5 = test: Growth inhibition of human SK-MEL-5 cells assessed as cell growth at 10 uM incubated for 48 hrs by sulforhodamine B assay relative to control
UACC-257 = test: Growth inhibition of human UACC-257 cells assessed as cell growth at 10 uM incubated for 48 hrs by sulforhodamine B assay relative to control
UACC-62 = test: Growth inhibition of human UACC-62 cells assessed as cell growth at 10 uM incubated for 48 hrs by sulforhodamine B assay relative to control
IGROV-1 = test: Growth inhibition of human IGROV-1 cells assessed as cell growth at 10 uM incubated for 48 hrs by sulforhodamine B assay relative to control
OVCAR-3 = test: Growth inhibition of human OVCAR-3 cells assessed as cell growth at 10 uM incubated for 48 hrs by sulforhodamine B assay relative to control
OVCAR-5 = test: Growth inhibition of human OVCAR-5 cells assessed as cell growth at 10 uM incubated for 48 hrs by sulforhodamine B assay relative to control
OVCAR-8 = test: Growth inhibition of human OVCAR-8 cells assessed as cell growth at 10 uM incubated for 48 hrs by sulforhodamine B assay relative to control
SK-OV-3 = test: Growth inhibition of human SK-OV-3 cells assessed as cell growth at 10 uM incubated for 48 hrs by sulforhodamine B assay relative to control
786-0 = test: Growth inhibition of human 786-0 cells assessed as cell growth at 10 uM incubated for 48 hrs by sulforhodamine B assay relative to control
ACHN = test: Growth inhibition of human ACHN cells assessed as cell growth at 10 uM incubated for 48 hrs by sulforhodamine B assay relative to control
CAKI-1 = test: Growth inhibition of human CAKI-1 cells assessed as cell growth at 10 uM incubated for 48 hrs by sulforhodamine B assay relative to control
RXF 393 = test: Growth inhibition of human RXF 393 cells assessed as cell growth at 10 uM incubated for 48 hrs by sulforhodamine B assay relative to control
SN12C = test: Growth inhibition of human SN12C cells assessed as cell growth at 10 uM incubated for 48 hrs by sulforhodamine B assay relative to control
TK-10 = test: Growth inhibition of human TK-10 cells assessed as cell growth at 10 uM incubated for 48 hrs by sulforhodamine B assay relative to control
UO-31 = test: Growth inhibition of human UO-31 cells assessed as cell growth at 10 uM incubated for 48 hrs by sulforhodamine B assay relative to control
PC-3 = test: Growth inhibition of human PC-3 cells assessed as cell growth at 10 uM incubated for 48 hrs by sulforhodamine B assay relative to control
DU-145 = test: Growth inhibition of human DU-145 cells assessed as cell growth at 10 uM incubated for 48 hrs by sulforhodamine B assay relative to control
BT-549 = test: Growth inhibition of human BT-549 cells assessed as cell growth at 10 uM incubated for 48 hrs by sulforhodamine B assay relative to control
MDA-MB-468 = test: Growth inhibition of human MDA-MB-468 cells assessed as cell growth at 10 uM incubated for 48 hrs by sulforhodamine B assay relative to control

SMILES	growth at 10 µM (CCRF-CEM) [%]	growth at 10 µM (K562) [%]	growth at 10 µM (MOLT-4) [%]	growth at 10 µM (RPMI-8226) [%]	growth at 10 µM (SR) [%]	growth at 10 µM (A549) [%]	growth at 10 µM (HOP-62) [%]	growth at 10 µM (NCI-H23) [%]	growth at 10 µM (NCI-H460) [%]	growth at 10 µM (NCI-H522) [%]	growth at 10 µM (HCC 2998) [%]	growth at 10 µM (HCT-116) [%]	growth at 10 µM (HCT-15) [%]	growth at 10 µM (HT-29) [%]	growth at 10 µM (SW-620) [%]	growth at 10 µM (SF-268) [%]	growth at 10 µM (SNB-75) [%]	growth at 10 µM (U-251) [%]	growth at 10 µM (LOX IMVI) [%]	growth at 10 µM (M14) [%]	other results
CC(=O)Nc1cc(CCl)cc(NC(=O)c2ccc(C(=O)Nc3cccc(NC(=O)CCCN(C)C)c3)cc2)c1	114	113	102	116	125	101	106	93	110	104	99	106	93	104	107	101	82	100	92	104	growth at 10 µM (MDA-MB-435): 100%; growth at 10 µM (SK-MEL-5): 93%; growth at 10 µM (UACC-257): 100%; growth at 10 µM (UACC-62): 101%; growth at 10 µM (IGROV-1): 116%; growth at 10 µM (OVCAR-3): 113%; growth at 10 µM (OVCAR-5): 92%; growth at 10 µM (OVCAR-8): 98%; growth at 10 µM (SK-OV-3): 114%; growth at 10 µM (786-0): 107%; growth at 10 µM (ACHN): 99%; growth at 10 µM (CAKI-1): 104%; growth at 10 µM (RXF 393): 96%; growth at 10 µM (SN12C): 105%; growth at 10 µM (TK-10): 106%; growth at 10 µM (UO-31): 98%; growth at 10 µM (PC-3): 104%; growth at 10 µM (DU-145): 106%; growth at 10 µM (BT-549): 106%; growth at 10 µM (MDA-MB-468): 91%
CC(=O)Nc1cc(CO)cc(NC(=O)c2ccc(C(=O)Nc3cccc(NC(=O)CCCN(C)C)c3)cc2)c1	41.2	16.7	57.9	95.6	11	108	77.7	99.1	90.3	79.5	97.7	79	105	59.4	98.2	79.4	62.2	69.9	88.1	81	growth at 10 µM (MDA-MB-435): 70%; growth at 10 µM (SK-MEL-5): 77.7%; growth at 10 µM (UACC-257): 88%; growth at 10 µM (UACC-62): 64.6%; growth at 10 µM (IGROV-1): 87.4%; growth at 10 µM (OVCAR-3): 119%; growth at 10 µM (OVCAR-5): 109%; growth at 10 µM (OVCAR-8): 105%; growth at 10 µM (SK-OV-3): 117%; growth at 10 µM (786-0): 104%; growth at 10 µM (ACHN): 92.8%; growth at 10 µM (CAKI-1): 101%; growth at 10 µM (RXF 393): 113%; growth at 10 µM (SN12C): 103%; growth at 10 µM (TK-10): 117%; growth at 10 µM (UO-31): 112%; growth at 10 µM (PC-3): 98.6%; growth at 10 µM (DU-145): 105%; growth at 10 µM (BT-549): 108%; growth at 10 µM (MDA-MB-468): 83.8%
CC(=O)Nc1cc(CO)cc(NC(=O)c2ccc(NC(=O)CCCN3CCOCC3)cc2)c1	87	96.7	99.5	93.6	108	104	101	98.3	110	93.4	102	104	103	104	103	110	92.5	105	110	103	growth at 10 µM (MDA-MB-435): 100%; growth at 10 µM (SK-MEL-5): 100%; growth at 10 µM (UACC-257): 106%; growth at 10 µM (UACC-62): 98.3%; growth at 10 µM (IGROV-1): 126%; growth at 10 µM (OVCAR-3): 121%; growth at 10 µM (OVCAR-5): 106%; growth at 10 µM (OVCAR-8): 105%; growth at 10 µM (SK-OV-3): 104%; growth at 10 µM (786-0): 97%; growth at 10 µM (ACHN): 109%; growth at 10 µM (CAKI-1): 110%; growth at 10 µM (RXF 393): 114%; growth at 10 µM (SN12C): 97%; growth at 10 µM (TK-10): 93.1%; growth at 10 µM (UO-31): 86.6%; growth at 10 µM (PC-3): 104%; growth at 10 µM (DU-145): 115%; growth at 10 µM (BT-549): 99.8%; growth at 10 µM (MDA-MB-468): 97.8%
